Laboratory results: publication PMC9011347, “Small-Molecule Inhibitors Targeting Lipolysis in Human Adipocytes” (Journal of the American Chemical Society, 2022)

Test system: HepG2 cells
Test: LDH-based cytotoxicity assay
Assay type: cell-based, human
Conditions: 24 h, up to a concentration of 100 μM
Method: Figure 2 Development and characterization of the human ATGL inhibitor NG-497. (a) Structure and IC50 values of human ATGL inhibitors. (b) Dose-dependent inhibition of human ATGL by respective inhibitors. (c) ATGL activity was determined at the indicated substrate concentrations in the absence and presence of NG-497 (0.5 μM). Ki was determined by nonlinear regression analysis using GraphPad Prism. Lineweaver–Burk analysis of ATGL inhibition is shown in the inset. (d) Toxicity of NG-497 in HepG2 cells was determined after 24 h incubation at indicated concentrations. Cisplatin and DMSO were used as positive and negative controls, respectively. Cytotoxicity was determined using the Roche LDH Kit and calculated as relative LDH release compared to fully lysed cells. (e) Stability of NG-497 was analyzed via ultrahigh-performance liquid chromatography–mass spectrometry (UHPLC-MS) after incubation in human serum for 0 or 3 h at 37 °C. Atglistatin and a chemically related unstable compound were used as controls. […] NG-497 concentrations/well were determined at the indicated time points using UHPLC-MS. […] Statistical significance was determined via t test (*p < 0.05; **p < 0.01; ***p < 0.001) or ANOVA followed by Bonferroni post hoc test (^###p < 0.001). […] The detected 297 lipid species of both groups were analyzed with supervised multivariate analysis OPLS-DA and are shown as a loading plot. […]

Q: Which “cytotoxicity (relative LDH release)” value does the source give for CCOc1ccc(-c2cc(OC)cc(C(=O)OC(C)C)n2)cc1 [NG-497] here?
A: The value was “no toxic effects”.
